Test results as given in US10064858B2, “Methods and compositions for treating bacterial infections with iron chelators” (THE UNITED STATES OF AMERICA, AS REPRESENTED BY THE …, priority 2011, dated 2018).
Read-outs that look alike come from different tables or passages of the source.

Experiments:
Assay type in all cases: cell-based
[1] = tested on: A. baumannii AB 19606, AB 17978; assay: Checkerboard assay, chelator with antibiotic (FIC); conditions: for checkerboard interaction: AB19606
Source text: Drug interactions were initially evaluated with the “checkerboard” microdilution design, which provided a matrix of all drug combinations assayed in terms of fractions of the previously determined MIC. The checkerboard microdilution design is described in R. J. Tallarida, “Drug Synergism: Its Detection and Applications,” Journal of Pharmacology and Experimental Therapeutics, 865-872 (2001); and in R. L. White, et al., (1996), supra. FIGS. 39A and 39B show the wellplates having different concentrations of iron chelator and antibiotic, as labeled along the x-axis and y-axis. […] The checkerboard assay was used to asses other combinations of iron chelators and antibiotics. The fractional inhibitory concentration index (FIC), which was calculated as follows: FIC=(MIC A in combination/MIC A)+(MIC B in combination/MIC B). […] Blank spaces indicate concentrations not tested. […] Against the species PA PAO1 and PA 27853, all the antibiotics except for Ami.

[2] = tested on: multi-drug resistant bacterial species; assay: Checkerboard, synergy with rifampin (summary)
Source text: Drug interactions were initially evaluated with the “checkerboard” microdilution design, which provided a matrix of all drug combinations assayed in terms of fractions of the previously determined MIC. The checkerboard microdilution design is described in R. J. Tallarida, “Drug Synergism: Its Detection and Applications,” Journal of Pharmacology and Experimental Therapeutics, 865-872 (2001); and in R. L. White, et al., (1996), supra. FIGS. 39A and 39B show the wellplates having different concentrations of iron chelator and antibiotic, as labeled along the x-axis and y-axis.
The checkerboard assay was used to asses other combinations of iron chelators and antibiotics. The fractional inhibitory concentration index (FIC), which was calculated as follows: FIC=(MIC A in combination/MIC A)+(MIC B in combination/MIC B). Interaction was defined as synergistic if the FIC was <1.0, preferably <0.5, no interaction if the FIC was >1.0 and <4.0, and antagonistic if the FIC was >4.0.
The assay was run against the multi-drug resistant bacterial species AB 19606, AB 17978, KP ndm, PA PAO1, PA 27853, EC 35718, and EC 43888. Blank spaces indicate concentrations not tested. […] Against the species PA PAO1 and PA 27853, all the antibiotics except for Ami.

[3] = tested on: AB5075 a MDR-clinical isolate of A. baumannii; assay: Time-kill assay in CAMHB; conditions: for time-kill course of CFU/mL: CAMHB, 24 hours (FIG. 8A); for effect on CFU/ml (time-kill, FIG. 13): 2 and 6 hours
Protocol: Reductions in colony forming units (CFU)/mL were determined over time (time-kill assay) after exposure to VK28 and deferiprone (DFP), the two iron chelators that performed best in MIC assays when compared to controls. To better represent the iron content found in the human body, MIC and time-kill assays were also determined in minimal media and tissue culture media. Time-Kill assays were performed as previously described in G. P. Neupane et al., “In vitro time-kill activities of ciprofloxacin alone and in combination with the iron chelator deferasirox against Vibrio vulnificus,” European Journal of Clinical Microbiology and Infectious Diseases, 407-410 (2010); and R. L. White, et al., “Comparison of Three Different In Vitro Methods of Detecting synergy: Time-Kill, Checkerboard, and E test,” Journal of Antimicrobial Agents and Chemotherapy, 1914-1918 (1996). Initial inocula, for example 1×10^6 CFU/mL or 1×10^7 CFU/mL were challenged with iron chelator with and/or without an antibiotic. Cells were allowed to grow in CAMHB at 37° C. for 24 hours. Time-kill results were analyzed by determining the change in log 10 numbers of CFU/ml at 0, 6, and 24 h, compared to counts at 0 h. Antimicrobials were considered bactericidal at the lowest concentration that reduced the size of the original inoculum by >3 log 10 CFU/ml (99.9%) over each of the time periods and were considered bacteriostatic if the inoculum's size was reduced by 0 to <3 log 10 CFU/ml.
(§1) In this example, time-kill assays were performed as described in Example 9 using Apo6619 as the iron chelator against AB5075 (MRSN959), the MDR-clinical isolate of A. baumannii. The initial inocula was 1×10^6 CFU/mL, and were challenged with 0.5×MIC, 1×MIC and 2×MIC of Apo6619. Time-kill results were analyzed by determining the change in log 10 numbers of CFU/mL at 0, 2 and 4 hours.
as §1, with “VK28 or DFP” for “Apo6619”, “AB5075,” for “AB5075 (MRSN959),”, “either VK28 or DFP.” for “Apo6619.”, “at” for “at 0,”, “6” for “4”

[4] = tested on: clinical isolates of A. baumannii; assay: MIC for clinical isolates in CAMHB media (Table 3); conditions: Acinetobacter baumannii
Protocol: Individual MICs were determined following the microdilution method recommended by CLSI in cationic-adjusted Mueller-Hinton Broth (CAMHB), or M9 media. […] Tests were performed in triplicate. MIC of iron chelators were determined for noscomial ESKAPE pathogens.

[5] = AB 17978, in combination with Amikacin
[6] = AB 17978, in combination with Cefotaxine
[7] = AB 17978, in combination with Colisitin (Colistin)
[8] = AB 17978, in combination with Doxycycline
[9] = AB 17978, in combination with Rifampin
[10] = AB 19606, in combination with Amikacin
[11] = AB 19606, in combination with Cefotaxine
[12] = AB 19606, in combination with Colisitin (Colistin)
[13] = AB 19606, in combination with Doxycycline
[14] = AB 19606, in combination with Rifampin
[15] = AB967, read-out: MIC of Iron Chelators
[16] = AB2828, read-out: MIC of Iron Chelators
[17] = AB3340, read-out: MIC of Iron Chelators
[18] = AB3560, read-out: MIC of Iron Chelators
[19] = AB3638, read-out: MIC of Iron Chelators
[20] = AB3785, read-out: MIC of Iron Chelators
[21] = AB3806, read-out: MIC of Iron Chelators
[22] = AB3917, read-out: MIC of Iron Chelators
[23] = AB3927, read-out: MIC of Iron Chelators
[24] = AB4025, read-out: MIC of Iron Chelators
[25] = AB4026, read-out: MIC of Iron Chelators
[26] = AB4027, read-out: MIC of Iron Chelators
[27] = AB4052, read-out: MIC of Iron Chelators
[28] = AB4269, read-out: MIC of Iron Chelators
[29] = AB4448, read-out: MIC of Iron Chelators
[30] = AB4456, read-out: MIC of Iron Chelators
[31] = AB4490, read-out: MIC of Iron Chelators
[32] = AB4498, read-out: MIC of Iron Chelators
[33] = AB4795, read-out: MIC of Iron Chelators
[34] = AB4857, read-out: MIC of Iron Chelators
[35] = AB4878, read-out: MIC of Iron Chelators
[36] = AB4932, read-out: MIC of Iron Chelators
[37] = AB4957, read-out: MIC of Iron Chelators
[38] = AB4991, read-out: MIC of Iron Chelators
[39] = AB5001, read-out: MIC of Iron Chelators
[40] = AB5075, read-out: MIC of Iron Chelators
[41] = AB5197, read-out: MIC of Iron Chelators
[42] = AB5256, read-out: MIC of Iron Chelators
[43] = AB5674, read-out: MIC of Iron Chelators
[44] = AB5711, read-out: MIC of Iron Chelators

Compound: CNC(=O)c1c(O)c(=O)cc(C)n1C1CC1 [Apo6619, 1-cyclopropyl-3-hydroxy-6-methyl-4-oxo-1,4-dihydro-pyridine-2-carboxylic acid methylamide]
- FIC [1, 5]: 0.75
- FIC [1, 6]: 0.75
- FIC [1, 7]: 0.75
- FIC [1, 8]: 1.25
- FIC [1, 9]: 0.75
- FIC [1, 10]: 1.25
- FIC [1, 11]: 1.25
- FIC [1, 12]: 1.25
- FIC [1, 13]: 2.25
- FIC [1, 14]: 0.75
- synergy with rifampin, checkerboard [2]: moderate degrees of synergy
- time-kill effect ([3]; 0.5×MIC, 1×MIC and 2×MIC, 0, 2 and 4 hours): bactericidal (considered bactericidal at the lowest concentration that reduced the size of the original inoculum by >3 log 10 CFU/ml (99.9%))
- MIC [4, 15]: 250 µg/mL
- MIC [4, 16]: 500 µg/mL
- MIC [4, 17]: 250 µg/mL
- MIC [4, 18]: 500 µg/mL
- MIC [4, 19]: 500 µg/mL
- MIC [4, 20]: 500 µg/mL
- MIC [4, 21]: 1000 µg/mL
- MIC [4, 22]: 500 µg/mL
- MIC [4, 23]: 250 µg/mL
- MIC [4, 24]: 500 µg/mL
- MIC [4, 25]: 500 µg/mL
- MIC [4, 26]: 500 µg/mL
- MIC [4, 27]: 500 µg/mL
- MIC [4, 28]: 250 µg/mL
- MIC [4, 29]: 500 µg/mL
- MIC [4, 30]: 500 µg/mL
- MIC [4, 31]: 500 µg/mL
- MIC [4, 32]: 500 µg/mL
- MIC [4, 33]: 500 µg/mL
- MIC [4, 34]: 500 µg/mL
- MIC [4, 35]: 500 µg/mL
- MIC [4, 36]: 500 µg/mL
- MIC [4, 37]: 250 µg/mL
- MIC [4, 38]: 500 µg/mL
- MIC [4, 39]: 250 µg/mL
- MIC [4, 40]: 250 µg/mL
- MIC [4, 41]: 500 µg/mL
- MIC [4, 42]: 250 µg/mL
- MIC [4, 43]: 250 µg/mL
- MIC [4, 44]: 250 µg/mL

Compound: Cc1c(O)c(=O)ccn1C [ApoL1, 3-hydroxy-1,2-dimethyl-4(1H)-pyridone]
- FIC [1, 5]: 1.25
- FIC [1, 6]: 1.25
- FIC [1, 7]: 1.25
- FIC [1, 8]: 1.25
- FIC [1, 9]: 0.75
- FIC [1, 10]: 1.25
- FIC [1, 11]: 1.25
- FIC [1, 12]: 1.25
- FIC [1, 13]: 2.25
- FIC [1, 14]: 0.75
- checkerboard interaction ([1]; with doxycycline (FIG. 39B)): indifference
- checkerboard interaction ([1]; with rifampin (FIG. 39A)): moderate synergy
- synergy with rifampin, checkerboard [2]: moderate degrees of synergy
- time-kill course of CFU/mL ([3]; 0.5×MIC): reduced level of CFU/ml at 2 and 6 hours but did increase in CFU at 24 hours to levels as seen in the untreated sample
- effect on CFU/ml (time-kill, FIG. 13) ([3]; 1×MIC): slight inhibitory effect
- time-kill course of CFU/mL ([3]; 1×MIC): reduced level of CFU/ml at 2 and 6 hours but did increase in CFU at 24 hours to levels as seen in the untreated sample
- effect on CFU/ml (time-kill, FIG. 13) ([3]; 2×MIC): stronger inhibitory effect
- time-kill course of CFU/mL ([3]; 2×MIC): did not have a substantial increase in CFU/ml over the 24 hour period
- MIC [4, 15]: 250 µg/mL
- MIC [4, 16]: 500 µg/mL
- MIC [4, 17]: 250 µg/mL
- MIC [4, 18]: 500 µg/mL
- MIC [4, 19]: 250 µg/mL
- MIC [4, 20]: 250 µg/mL
- MIC [4, 21]: 500 µg/mL
- MIC [4, 22]: 250 µg/mL
- MIC [4, 23]: 250 µg/mL
- MIC [4, 24]: 250 µg/mL
- MIC [4, 25]: 250 µg/mL
- MIC [4, 26]: 250 µg/mL
- MIC [4, 27]: 250 µg/mL
- MIC [4, 28]: 250 µg/mL
- MIC [4, 29]: 250 µg/mL
- MIC [4, 30]: 250 µg/mL
- MIC [4, 31]: 250 µg/mL
- MIC [4, 32]: 250 µg/mL
- MIC [4, 33]: 250 µg/mL
- MIC [4, 34]: 250 µg/mL
- MIC [4, 35]: 250 µg/mL
- MIC [4, 36]: 500 µg/mL
- MIC [4, 37]: 125 µg/mL
- MIC [4, 38]: 250 µg/mL
- MIC [4, 39]: 125 µg/mL
- MIC [4, 40]: 250 µg/mL
- MIC [4, 41]: 250 µg/mL
- MIC [4, 42]: 250 µg/mL
- MIC [4, 43]: 250 µg/mL
- MIC [4, 44]: 250 µg/mL
